Measurements from patent US12404295B2, “(Hetero)aryl-methyl-thio-beta-D-galactopyranoside derivatives” (Idorsia Pharmaceuticals Ltd, priority 2019, dated 2025).
pIC50: −log10 of the molar value. Read-outs that look alike come from different tables or passages of the source.

Key:
human Gal-1 (hGal-1) = human Gal-1 (hGal-1) (Homo sapiens (Human), UniProt P09382); assay: competitive binding assay: biotinylated hGal-1 binding to microplate-adsorbed asialofetuin (ASF); conditions: Table 15; read-out: IC50 (Galectin-1 inhibition)
Outline: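 Biotinylated human Gal-1 (300-1000 ng/mL) competes with serially diluted compound for binding to ASF-coated plates, 3 h at 4° C. Bound protein detected with streptavidin-peroxidase and ABTS substrate (spectrophotometric). IC50 given as mean of several measurements.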

human Gal-3 (hGal-3) = human Gal-3 (hGal-3) (Homo sapiens (Human), UniProt P17931); assay: competitive binding assay: biotinylated hGal-3 binding to microplate-adsorbed asialofetuin (ASF); conditions: read-out: IC50 (Gal-3 inhibition)
Outline: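 Peroxidase activity developed with ABTS measures the biotinylated hGal-3 remaining on the asialofetuin-coated surface after competition with test compounds. Incubation ran 3 h at 4 °C, followed by 1 h with streptavidin-peroxidase at 80 ng/mL.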

Chain of human Gal-3 (hGal-3) (P17931 whole entry): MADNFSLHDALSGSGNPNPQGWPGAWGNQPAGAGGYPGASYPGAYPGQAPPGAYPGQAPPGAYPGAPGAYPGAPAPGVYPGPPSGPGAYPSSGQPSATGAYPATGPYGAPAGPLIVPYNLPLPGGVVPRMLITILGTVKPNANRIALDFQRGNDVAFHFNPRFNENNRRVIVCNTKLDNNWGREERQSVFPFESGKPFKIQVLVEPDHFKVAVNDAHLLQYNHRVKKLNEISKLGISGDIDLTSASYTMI
Chain of human Gal-1 (hGal-1) (P09382 whole entry): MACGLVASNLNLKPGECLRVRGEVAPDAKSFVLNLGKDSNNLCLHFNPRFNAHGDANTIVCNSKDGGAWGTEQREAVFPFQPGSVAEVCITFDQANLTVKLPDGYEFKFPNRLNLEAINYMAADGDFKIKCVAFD

Row | Structure (SMILES) | pIC50 (human Gal-1 (hGal-1)) | pIC50 (human Gal-3 (hGal-3); Table 9, 2-OMe-Gal inhibitors) | pIC50 (human Gal-3 (hGal-3); Table 10, 2-OMe-Gal inhibitors) | pIC50 (human Gal-3 (hGal-3); Table 11)
1 | CO[C@@H]1[C@@H](n2cc(-c3cc(F)c(F)c(F)c3)nn2)[C@@H](O)[C@@H](CO)O[C@H]1SC(c1ncccc1Cl)C1(O)CCC(F)(F)CC1 (stereo partly drawn) [Example 2.44.137.I., (2R,3R,4S,5R,6S)-6-(((3-Chloropyridin-2-yl)(4,4-difluoro-1-hydroxycyclohexyl)methyl)thio)-2-(hydroxymethyl)-5-methoxy-4-(4-(3,4,5-trifluorophenyl)-1H-1,2,3-triazol-1-yl)tetrahydro-2H-pyran-3-ol] | 5.36 | 6.85 | – | –
2 | CO[C@@H]1[C@@H](n2cc(-c3cc(F)c(F)c(F)c3)nn2)[C@@H](O)[C@@H](CO)O[C@H]1S[C@H](c1ncccc1Cl)C1(O)CCC(F)(F)CC1 [Example 2.44.137R.I., (2R,3R,4S,5R,6S)-6-(((R)-(3-Chloropyridin-2-yl)(4,4-difluoro-1-hydroxycyclohexyl)methyl)thio)-2-(hydroxymethyl)-5-methoxy-4-(4-(3,4,5-trifluorophenyl)-1H-1,2,3-triazol-1-yl)tetrahydro-2H-pyran-3-ol] | 6.14 | 7.15 | – | –
3 | CCn1nnc(C)c1C(S[C@@H]1O[C@H](CO)[C@H](O)[C@H](n2cc(-c3cc(F)c(F)c(F)c3)nn2)[C@H]1OC)C1(O)CCC(F)(F)CC1 (stereo partly drawn) [Example 2.44.138.I., (2R,3R,4S,5R,6S)-6-(((4,4-Difluoro-1-hydroxycyclohexyl)(1-ethyl-4-methyl-1H-1,2,3-triazol-5-yl)methyl)thio)-2-(hydroxymethyl)-5-methoxy-4-(4-(3,4,5-trifluorophenyl)-1H-1,2,3-triazol-1-yl)tetrahydro-2H-pyran-3-ol] | 6.08 | – | 6.52 | –
4 | CCn1nnc(C)c1[C@@H](S[C@@H]1O[C@H](CO)[C@H](O)[C@H](n2cc(-c3cc(F)c(F)c(F)c3)nn2)[C@H]1OC)C1(O)CCC(F)(F)CC1 [Example 2.44.138R.I., (2R,3R,4S,5R,6S)-6-(((R)-(4,4-Difluoro-1-hydroxycyclohexyl)(1-ethyl-4-methyl-1H-1,2,3-triazol-5-yl)methyl)thio)-2-(hydroxymethyl)-5-methoxy-4-(4-(3,4,5-trifluorophenyl)-1H-1,2,3-triazol-1-yl)tetrahydro-2H-pyran-3-ol] | 6.40 | – | 6.82 | –
5 | CCn1nnc(C)c1[C@H](S[C@@H]1O[C@H](CO)[C@H](O)[C@H](n2cc(-c3cc(F)c(F)c(F)c3)nn2)[C@H]1OC)C1(O)CCC(F)(F)CC1 [Example 2.44.138S.I., (2R,3R,4S,5R,6S)-6-(((S)-(4,4-Difluoro-1-hydroxycyclohexyl)(1-ethyl-4-methyl-1H-1,2,3-triazol-5-yl)methyl)thio)-2-(hydroxymethyl)-5-methoxy-4-(4-(3,4,5-trifluorophenyl)-1H-1,2,3-triazol-1-yl)tetrahydro-2H-pyran-3-ol] | < 4.00 | – | 4.88 | –
6 | CCn1ncc(Cl)c1C(S[C@@H]1O[C@H](CO)[C@H](O)[C@H](n2cc(-c3cc(F)c(F)c(F)c3)nn2)[C@H]1OC)C1(O)CCC(F)(F)CC1 (stereo partly drawn) [Example 2.44.139.I., (2R,3R,4S,5R,6S)-6-(((4-Chloro-1-ethyl-1H-pyrazol-5-yl)(4,4-difluoro-1-hydroxycyclohexyl)methyl)thio)-2-(hydroxymethyl)-5-methoxy-4-(4-(3,4,5-trifluorophenyl)-1H-1,2,3-triazol-1-yl)tetrahydro-2H-pyran-3-ol] | 5.41 | – | 6.21 | –
7 | CCn1ncc(Cl)c1[C@@H](S[C@@H]1O[C@H](CO)[C@H](O)[C@H](n2cc(-c3cc(F)c(F)c(F)c3)nn2)[C@H]1OC)C1(O)CCC(F)(F)CC1 [Example 2.44.139R.I., (2R,3R,4S,5R,6S)-6-(((R)-(4-Chloro-1-ethyl-1H-pyrazol-5-yl)(4,4-difluoro-1-hydroxycyclohexyl)methyl)thio)-2-(hydroxymethyl)-5-methoxy-4-(4-(3,4,5-trifluorophenyl)-1H-1,2,3-triazol-1-yl)tetrahydro-2H-pyran-3-ol] | 6.27 | – | 6.49 | –
8 | CCn1ncc(Cl)c1[C@H](S[C@@H]1O[C@H](CO)[C@H](O)[C@H](n2cc(-c3cc(F)c(F)c(F)c3)nn2)[C@H]1OC)C1(O)CCC(F)(F)CC1 [Example 2.44.139S.I., (2R,3R,4S,5R,6S)-6-(((S)-(4-Chloro-1-ethyl-1H-pyrazol-5-yl)(4,4-difluoro-1-hydroxycyclohexyl)methyl)thio)-2-(hydroxymethyl)-5-methoxy-4-(4-(3,4,5-trifluorophenyl)-1H-1,2,3-triazol-1-yl)tetrahydro-2H-pyran-3-ol] | < 4.00 | – | 4.42 | –
9 | CCc1onc([C@@H](S[C@@H]2O[C@H](CO)[C@H](O)[C@H](n3cc(-c4cc(F)c(F)c(F)c4)nn3)[C@H]2OC)C2(O)CCC(F)(F)CC2)c1C [Example 2.44.140R.I., (2R,3R,4S,5R,6S)-6-(((R)-(4,4-Difluoro-1-hydroxycyclohexyl)(5-ethyl-4-methylisoxazol-3-yl)methyl)thio)-2-(hydroxymethyl)-5-methoxy-4-(4-(3,4,5-trifluorophenyl)-1H-1,2,3-triazol-1-yl)tetrahydro-2H-pyran-3-ol] | 6.15 | – | 6.92 | –
10 | CO[C@@H]1[C@@H](n2cc(-c3cc(F)c(F)c(F)c3)nn2)[C@@H](O)[C@@H](CO)O[C@H]1SC(c1nccc(Cl)c1C)C1(O)CCC(F)(F)CC1 (stereo partly drawn) [Example 2.44.141.I., (2R,3R,4S,5R,6S)-6-(((4-Chloro-3-methylpyridin-2-yl)(4,4-difluoro-1-hydroxycyclohexyl)methyl)thio)-2-(hydroxymethyl)-5-methoxy-4-(4-(3,4,5-trifluorophenyl)-1H-1,2,3-triazol-1-yl)tetrahydro-2H-pyran-3-ol] | 6.07 | – | – | 6.82
11 | CO[C@@H]1[C@@H](n2cc(-c3cc(F)c(F)c(F)c3)nn2)[C@@H](O)[C@@H](CO)O[C@H]1S[C@H](c1nccc(Cl)c1C)C1(O)CCC(F)(F)CC1 [Example 2.44.141R.I., (2R,3R,4S,5R,6S)-6-(((R)-(4-Chloro-3-methylpyridin-2-yl)(4,4-difluoro-1-hydroxycyclohexyl)methyl)thio)-2-(hydroxymethyl)-5-methoxy-4-(4-(3,4,5-trifluorophenyl)-1H-1,2,3-triazol-1-yl)tetrahydro-2H-pyran-3-ol] | 6.46 | – | – | 7.15
12 | CO[C@@H]1[C@@H](n2cc(-c3cc(F)c(F)c(F)c3)nn2)[C@@H](O)[C@@H](CO)O[C@H]1S[C@@H](c1nccc(Cl)c1C)C1(O)CCC(F)(F)CC1 [Example 2.44.141S.I., (2R,3R,4S,5R,6S)-6-(((S)-(4-Chloro-3-methylpyridin-2-yl)(4,4-difluoro-1-hydroxycyclohexyl)methyl)thio)-2-(hydroxymethyl)-5-methoxy-4-(4-(3,4,5-trifluorophenyl)-1H-1,2,3-triazol-1-yl)tetrahydro-2H-pyran-3-ol] | 4.98 | – | – | 5.46
13 | CCc1cccnc1C(S[C@@H]1O[C@H](CO)[C@H](O)[C@H](n2cc(-c3cc(F)c(F)c(F)c3)nn2)[C@H]1OC)C1(O)CCC(F)(F)CC1 (stereo partly drawn) [Example 2.44.142.I., (2R,3R,4S,5R,6S)-6-(((4,4-Difluoro-1-hydroxycyclohexyl)(3-ethylpyridin-2-yl)methyl)thio)-2-(hydroxymethyl)-5-methoxy-4-(4-(3,4,5-trifluorophenyl)-1H-1,2,3-triazol-1-yl)tetrahydro-2H-pyran-3-ol] | 6.72 | – | – | 7.30
14 | CCc1cccnc1[C@@H](S[C@@H]1O[C@H](CO)[C@H](O)[C@H](n2cc(-c3cc(F)c(F)c(F)c3)nn2)[C@H]1OC)C1(O)CCC(F)(F)CC1 [Example 2.44.142R.I., (2R,3R,4S,5R,6S)-6-(((R)-(4,4-Difluoro-1-hydroxycyclohexyl)(3-ethylpyridin-2-yl)methyl)thio)-2-(hydroxymethyl)-5-methoxy-4-(4-(3,4,5-trifluorophenyl)-1H-1,2,3-triazol-1-yl)tetrahydro-2H-pyran-3-ol [1,3-di-deoxy-1-((4,4-difluoro-1-hydroxy-cyclohexan-1-yl)-(3-(-ethyl)pyridin-2-yl)methyl-(R)-thio)-2-O-methyl-3-[4-(3,4,5-trifluorophenyl)-1H-1,2,3-triazol-1-yl]-b-D-galactopyranoside]] | 7.00 | – | – | 7.52
15 | CCc1cccnc1[C@H](S[C@@H]1O[C@H](CO)[C@H](O)[C@H](n2cc(-c3cc(F)c(F)c(F)c3)nn2)[C@H]1OC)C1(O)CCC(F)(F)CC1 [Example 2.44.142S.I., (2R,3R,4S,5R,6S)-6-(((S)-(4,4-Difluoro-1-hydroxycyclohexyl)(3-ethylpyridin-2-yl)methyl)thio)-2-(hydroxymethyl)-5-methoxy-4-(4-(3,4,5-trifluorophenyl)-1H-1,2,3-triazol-1-yl)tetrahydro-2H-pyran-3-ol] | 5.08 | – | – | 5.09
16 | CO[C@@H]1[C@@H](n2cc(-c3cc(F)c(F)c(F)c3)nn2)[C@@H](O)[C@@H](CO)O[C@H]1SC(c1nccc(Cl)c1Cl)C1(O)CCC(F)(F)CC1 (stereo partly drawn) [Example 2.44.143.I., (2R,3R,4S,5R,6S)-6-(((3,4-Dichloropyridin-2-yl)(4,4-difluoro-1-hydroxycyclohexyl)methyl)thio)-2-(hydroxymethyl)-5-methoxy-4-(4-(3,4,5-trifluorophenyl)-1H-1,2,3-triazol-1-yl)tetrahydro-2H-pyran-3-ol] | 6.07 | – | – | 6.85
17 | CO[C@@H]1[C@@H](n2cc(-c3cc(F)c(F)c(F)c3)nn2)[C@@H](O)[C@@H](CO)O[C@H]1S[C@@H](c1nccc(Cl)c1Cl)C1(O)CCC(F)(F)CC1 [Example 2.44.143S.I., (2R,3R,4S,5R,6S)-6-(((S)-(3,4-Dichloropyridin-2-yl)(4,4-difluoro-1-hydroxycyclohexyl)methyl)thio)-2-(hydroxymethyl)-5-methoxy-4-(4-(3,4,5-trifluorophenyl)-1H-1,2,3-triazol-1-yl)tetrahydro-2H-pyran-3-ol] | 5.01 | – | – | 5.00
